{"source": "patent US7722863B2", "about": "“Use of granzyme b as an hsp70/hsp70 peptide dependent inducer of apoptosis in tumor cells” (Multimmune GmbH, priority 2002, dated 2010)", "key": {"[1]": {"tested_on": "Hsp70 membrane-positive leukemic cell line K562", "assay": "Annexin V-FITC apoptosis assay (flow cytometry)", "type": "cell-based", "settings": "granzyme B", "protocol": "Exponentially growing tumor cells (day 1 after cell passage) were used for granzyme B, camptothecin treatment and as targets in cytotoxicity assays.\nAnnexin V-FITC staining: Briefly, cells were washed twice in Hepes buffer containing 5 mM CaCl2 and incubated with Annexin V-FITC (Roche) for 10 min at room temperature. Annexin V-FITC positively stained cells were measured on a FACSCalibur flow cytometer (Becton Dickinson, Heidelberg, Germany).\nSimilarly, a 1.3-fold and a 2.4-fold increase in the amount of Annexin V-FITC positively stained Colo+ cells were observed after 12 h and 24 h, respectively. […] A comparative Annexin V-FITC staining pattern of CX+ and CX− cells treated with granzyme B for 24 h, is illustrated in FIG. 3B. […] The amount of Annexin V-FITC positively stained K562 cells increased from 8.7% up to 16% (1.8-fold)."}, "[2]": {"tested_on": "CX+/CX− and Colo+/Colo− tumor cells", "assay": "Light microscopical analysis of plastic adherence (anoikes)", "type": "cell-based, human", "settings": "24 h post-treatment with granzyme B; Hsp70 membrane-positive and -negative lines", "protocol": "In order to exclude apoptosis initiated by anoikes light microscopical analysis of untreated (control), camptothecin (cam) and granzyme B (grB) treated CX+/CX− and Colo+/Colo− tumor cells were performed. […] Regarding these findings we ruled out the possibility that anoikes might be a possible mechanism for the induction of apoptotic cell death in Hsp70 membrane-positive tumor sublines. It is important to note that all apoptosis assays were determined within the adherent cell population following a short term (<1 min) trypsinization."}, "[3]": {"tested_on": "Hsp70 membrane-negative Colo− tumor subline", "assay": "Cell surface binding and uptake of granzyme B (fluorescence microscopy, flow cytometry)", "type": "cell-based, human", "settings": "data not shown", "protocol": "(§1) Cells (0.5×10^6) were fixed in paraformaldehyde (1% PFA in PBS) for 10 min, and permeabilized in PBS containing BSA (0.5%), NaN3 (0.1%), and saponin (0.1%). Then permeabilized cells were incubated either with the granzyme B-phycoerythrin conjugated monoclonal antibody HC2-PE (IgG1; Hölzel Diagnosbka, Cologne, Germany) with an isotype-matched IgG1 control antibody, at 4° C. for 1 h, in the dark. Following washing cells were analysed on a FACSCalibur instrument (Becton Dickinson, Heidelberg, Germany).\n(§2) Stock solutions of camptothecin (4 mg/ml, Sigma, Munich, Germany) were diluted in DMSO and stored at 4° C. in the dark. Granzyme B (6 ng/ml, Hölzel Diagnostics, Cologne, Germany) solutions were freshly prepared directly before usage. Exponentially growing cells (0.5-1.5×10^6/ml) were incubated either with camptothecin at a final concentration of 4 μg/ml or with purified, enzymatically active granzyme B (10 ng/ml, 1 μg/ml, 2 μg/ml; 4 μg/ml) (Shi et. al. (2000) Methods in Enzymology 322, 125) for 10 min, and 30 min either at 4° C. or at 37° C. After washing in RPMI-1640 medium binding and uptake was determined in nonpermeabilized and permeabilized tumor cells by flow cytometry and fluorescence microscopy on a Axioscop 25 scanning microscope (Zeiss, Jena, Germany) equipped with a 40× objective and standard filters. Images were treated by multiplicative shading correction using the software Axiovison (Zeiss Vison, Jena, Germany). Granzyme B was visualized in red by using the HC2-PE antibody.\n(§3) The preceding findings posed the question whether membrane-bound Hsp70 might enable specific binding and entry of granzyme B into the cytosol. […] A light microscopical analysis of untreated CX+ and Colo+ cells (control) at 4° C. versus 37° C. is shown in the upper row of each panel (FIG. 2A). The corresponding immunofluorescence microscopy of the cells at 4° C. and 37° C. is illustrated below (control). […] (data not shown). […] (FIG. 2B, upper graph). […] However, even at the highest concentration of 4 μg/ml, granzyme B was internalized much more pronounced by Hsp70 membrane-positive as compared to Hsp70-negative tumor cells (CX−/Colo−). Potential ion channels formed by Hsp70 may play a role in the mechansim of selective granzyme B uptake in Hsp70 membrane-positive tumor cells. Indeed, a particular ion conductance pathway was observed after incorporation of vesicles derived from purified phospholipids of Hsp70 membrane-positive (CX+) tumor sublines. This was not seen in vesicles obtained from Hsp70 membrane-negative (CX−) tumor cells (data not shown)."}, "[4]": {"tested_on": "Hsp70 membrane-positive Colo+ tumor subline", "assay": "Cell surface binding and uptake of granzyme B (fluorescence microscopy, flow cytometry)", "type": "cell-based, human", "protocol": "as §1, §2, §3"}, "[5]": {"tested_on": "Hsp70 membrane-negative CX− tumor subline", "assay": "Cell surface binding and uptake of granzyme B (fluorescence microscopy, flow cytometry)", "type": "cell-based, human", "settings": "data not shown", "protocol": "as §1, §2, §3"}, "Colo+ tumor cells": {"tested_on": "Colo+ tumor cells", "assay": "DAPI staining of nuclear DNA fragmentation", "type": "cell-based, human", "settings": "24 h, camptothecin 4 μg/ml or granzyme B 6 ng/ml", "protocol": "(§4) DAPI-staining: Methanol/aceton fixed cells (0.1×10^6 cells/100 μl) were incubated with 0.5 μg/μl 4,6-diamino-2-phenylindole (DAPI) in PBS/glycerol (3:1), for 15 min in the dark. Following washing in PBS the cells were mounted with Fluorescent Mounting Medium (Dako, Glostrup, Denmark) and than analysed for fluorescence using a Zeiss model Axioscop 2 scanning microscope (Zeiss Jena, Germany) equipped with a 40× objective and standard filters. Apoptosis was visualized with DAPI-staining in 50 cells, each. Images were treated by multiplicative shading correction using software Axiovision (Zeiss Vision Jena, Germany)."}, "Colo− tumor cells": {"tested_on": "Colo− tumor cells", "assay": "DAPI staining of nuclear DNA fragmentation", "type": "cell-based, human", "settings": "24 h, camptothecin 4 μg/ml or granzyme B 6 ng/ml", "protocol": "as §4"}, "CX+ tumor cells": {"tested_on": "CX+ tumor cells", "assay": "DAPI staining of nuclear DNA fragmentation", "type": "cell-based, human", "settings": "24 h, camptothecin 4 μg/ml or granzyme B 6 ng/ml", "protocol": "as §4"}, "CX− tumor cells": {"tested_on": "CX− tumor cells", "assay": "DAPI staining of nuclear DNA fragmentation", "type": "cell-based, human", "settings": "24 h, camptothecin 4 μg/ml or granzyme B 6 ng/ml", "protocol": "as §4"}}}
{"substance": "granzyme B", "values": [{"measurement": "amount of Annexin V-FITC positively stained K562 cells", "setting": "[1]; untreated 8.7%, data not shown", "result": 16, "unit": "%"}, {"measurement": "fold increase of Annexin V-FITC positively stained K562 cells", "setting": "[1]; versus untreated", "result": 1.8, "unit": "fold"}, {"measurement": "loss in plastic adherence", "setting": "[2]", "result": "neither Hsp70 membrane-positive nor -negative tumor cell lines exhibited any signs of loss in plastic adherence"}, {"measurement": "granzyme B cell surface binding (immunofluorescence)", "setting": "[3]; 4° C.", "result": "either exhibited any granzyme B cell surface binding at 4 °C"}, {"measurement": "granzyme B uptake (immunofluorescence)", "setting": "[3]; 37° C.", "result": "nor uptake at 37 °C"}, {"measurement": "granzyme B uptake, flow cytometry of permeabilized cells", "setting": "[4]; 1 μg/ml granzyme B, 30 min, 37° C.", "result": "faint shift of the granzyme B peak to the right"}, {"measurement": "granzyme B uptake, flow cytometry of permeabilized cells", "setting": "[4]; 2 μg/ml and 4 μg/ml granzyme B", "result": "dose-dependent increase in granzyme B uptake"}, {"measurement": "granzyme B cell surface binding (immunofluorescence)", "setting": "[4]; 15 min at 4° C., granzyme B 2 μg/ml", "result": "typical cell surface staining, was detected"}, {"measurement": "granzyme B uptake, cytoplasmic staining (immunofluorescence)", "setting": "[4]; temperature shift 4° C. to 37° C., 30 min", "result": "resulted in uptake of granzyme B"}, {"measurement": "granzyme B cell surface binding (immunofluorescence)", "setting": "[5]; 4° C.", "result": "either exhibited any granzyme B cell surface binding at 4 °C"}, {"measurement": "granzyme B uptake (immunofluorescence)", "setting": "[5]; 37° C.", "result": "nor uptake at 37 °C"}, {"measurement": "nuclear DNA fragmentation (DAPI)", "setting": "Colo+ tumor cells", "result": "DNA fragmentation was detected"}, {"measurement": "nuclear DNA fragmentation (DAPI)", "setting": "Colo− tumor cells", "result": "no DNA fragmentation was observed"}, {"measurement": "nuclear DNA fragmentation (DAPI)", "setting": "CX+ tumor cells", "result": "DNA fragmentation was detected"}, {"measurement": "nuclear DNA fragmentation (DAPI)", "setting": "CX− tumor cells", "result": "no DNA fragmentation was observed"}]}
